Values of other authors in patent publication US20200016283A1, “COMBINATION THERAPY COMPRISING A RADIOPHARMACEUTICAL AND A DNA-REPAIR INHIBITOR” (Bayer AS, priority 2017, published 2020).

Details: complexed at ambient temperature in aqueous solutions

Cn1ccc(C(=O)NCCN(CCNC(=O)c2ccn(C)c(=O)c2O)CC(Cc2ccc(CC(=O)CCC(=O)O)cc2)CN(CCNC(=O)c2ccn(C)c(=O)c2O)CCNC(=O)c2ccn(C)c(=O)c2O)c(O)c1=O [IV′]
Stability of the Th-227 complex: highly stable
